Experimental data reported in patent US20250388602A1 (Genase Therapeutics B.V., priority 2022, published 2025).
Where two headings read alike, the source gives them in different places.

Assays:
MOLM-13 cells = test: MOLM-13 cell viability (Assay B), Cell Titer-Glo; type: cell-based; settings: Homo sapiens, read-out: IC50 MOLM13 inhibition activity
Procedure: MOLM-13 cells (an acute myeloid leukemia cell line) were plated in RPMI supplied with 10% FBS and 1% Pen/Strep in 384-well plates at 1,000 cells per well on day 0. On day 1, treatment of the cells with compound (concentration range 10E-5 and 6E-12 M) was initiated in the presence or absence of 100 μM uridine. After 72 hours incubation of the cells with or without test compound, the number of viable cells per well was assessed by Cell Titer-Glo Luminescent Cell Viability Assay (Promega, Madison, WI, USA). […] Each condition was tested in duplicate and the potency of test compounds was determined from two independent experiments.

recombinant human DHODH = recombinant human DHODH (Homo sapiens (Human), UniProt Q02127); test: DHODH enzyme assay (Assay A), DCIP absorbance; type: biochemical
Procedure: Inhibition of human dihydroorotate dehydrogenase (DHODH) by example compounds as described herein was determined using one of two assays as described below.
DHODH enzyme assays were performed with 6 nM recombinant human DHODH (purified essentially as described by Walse et al., Biochemistry, 47, 8929-8936 (2008)). The reaction mixture consisted of 1 mM DL-dihydroorotic acid (#D7003, Sigma-Aldrich), 100 μM 3,4-dimethoxy-5-methyl-p-benzoquinone (#D9150, Sigma-Aldrich), and 100 μM 2,6-dichlorophenolindophenol sodium salt (DCIP) (#D1878, Sigma-Aldrich) in enzyme buffer (50 mM Tris-HCl pH 8.0, 0.1% Triton X-100, 150 mM KCl). A stock solution of 20 mM DCIP was prepared in enzyme buffer and filtered through Whatman paper just before use. Reactions were performed in a total volume of 100 μL, consisting of 1 μL of compound, 49 μL of enzyme and 50 μL of reaction mixture. Loss in absorbance by chromogen DCIP was measured at 595 nm following a 70 minute incubation at 32° C.

[1] = MOLM-13, 72 hours, bins ≥10 nM-<100 nM and <10 nM
[2] = bin ≥1 μM-<10 μM, read-out: IC50 DHODH inhibition activity
[3] = bins ≥10 nM-<100 nM and <10 nM, read-out: IC50 DHODH inhibition activity

Sequence of recombinant human DHODH (Q02127 whole entry): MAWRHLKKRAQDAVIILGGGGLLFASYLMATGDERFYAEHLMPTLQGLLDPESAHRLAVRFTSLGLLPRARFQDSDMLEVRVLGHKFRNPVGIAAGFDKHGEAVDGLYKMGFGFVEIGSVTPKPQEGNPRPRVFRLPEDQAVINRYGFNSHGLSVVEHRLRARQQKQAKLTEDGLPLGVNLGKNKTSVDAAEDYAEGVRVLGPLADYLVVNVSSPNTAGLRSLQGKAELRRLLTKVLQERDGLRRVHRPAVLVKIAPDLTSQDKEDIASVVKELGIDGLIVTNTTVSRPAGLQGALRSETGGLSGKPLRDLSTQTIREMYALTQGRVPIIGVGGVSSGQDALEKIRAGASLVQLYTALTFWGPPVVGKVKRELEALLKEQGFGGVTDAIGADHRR

Work on COc1cccc(-n2ncc3c2COC[C@H]3NC(=O)c2cc(C)c(C)cn2)c1Cl yielded an IC50 (MOLM-13 cells; [1]) of 10 to 100 nM.

O=C(N[C@H]1COCc2c1cnn2-c1ccccc1F)c1ncn2c1CCCC2 (single isomer, unassigned) [Ex-2] was tested, and the IC50 (recombinant human DHODH; [2]) was 1000 to 10000 nM.

O=C(N[C@H]1COCc2c1cnn2-c1ccccc1F)c1ncc2n1CCCC2 (single isomer, unassigned) [Ex-5] gave an IC50 (recombinant human DHODH; [2]) of 1000 to 10000 nM.

Work on O=C(N[C@H]1COCc2c1cnn2-c1c(Cl)cccc1Cl)c1ncn2c1CCCC2 (single isomer, unassigned) [Ex-12] yielded an IC50 (MOLM-13 cells; [1]) of 10 to 100 nM.

Cc1cccc(-n2ncc3c2COC[C@H]3NC(=O)c2ncn3c2CCCC3)c1Cl [Ex-14, (S)—N-(1-(2-chloro-3-methylphenyl)-1,4,5,7-tetrahydropyrano[3,4-c]pyrazol-4-yl)-5,6,7,8-tetrahydroimidazo[1,5-a]pyridine-1-carboxamide] was tested, and the IC50 (recombinant human DHODH; [3]) was under 10 nM and the IC50 (MOLM-13 cells; MOLM-13, 72 h) was under 10 nM.

With CCc1c(C(=O)N[C@@H]2COCc3c2cnn3-c2cccc(C)c2Cl)ncn1C [Ex-15, (S)—N-(1-(2-chloro-3-methylphenyl)-1,4,5,7-tetrahydropyrano[3,4-c]pyrazol-4-yl)-5-ethyl-1-methyl-1H-imidazole-4-carboxamide] the IC50 (recombinant human DHODH; [3]) was under 10 nM and the IC50 (MOLM-13 cells; [1]) was under 10 nM.

Compound Cc1cccc(-n2ncc3c2COC[C@H]3NC(=O)c2ncc3n2CCCC3)c1Cl [Ex-16, (S)—N-(1-(2-chloro-3-methylphenyl)-1,4,5,7-tetrahydropyrano[3,4-c]pyrazol-4-yl)-5,6,7,8-tetrahydroimidazo[1,5-a]pyridine-3-carboxamide] has an IC50 (recombinant human DHODH; [3]) of under 10 nM and an IC50 (MOLM-13 cells; [1]) of under 10 nM.

Work on Cc1cccc(-n2ncc3c2COC[C@H]3NC(=O)c2n[nH]c3c2CCCC3)c1Cl [Ex-17, (S)—N-(1-(2-chloro-3-methylphenyl)-1,4,5,7-tetrahydropyrano[3,4-c]pyrazol-4-yl)-4,5,6,7-tetrahydro-1H-indazole-3-carboxamide] yielded an IC50 (recombinant human DHODH; [3]) of 10 to 100 nM and an IC50 (MOLM-13 cells; [1]) of 10 to 100 nM.

Cc1cccc(-n2ncc3c2COC[C@H]3NC(=O)c2noc3c2CCCC3)c1Cl [Ex-18, (S)—N-(1-(2-chloro-3-methylphenyl)-1,4,5,7-tetrahydropyrano[3,4-c]pyrazol-4-yl)-4,5,6,7-tetrahydrobenzo[d]isoxazole-3-carboxamide] gave an IC50 (recombinant human DHODH; [3]) of under 10 nM and an IC50 (MOLM-13 cells; [1]) of under 10 nM.

For CCc1c(C(=O)N[C@@H]2COCc3c2cnn3-c2cccc(C)c2Cl)n[nH]c1C [Ex-19, (S)—N-(1-(2-chloro-3-methylphenyl)-1,4,5,7-tetrahydropyrano[3,4-c]pyrazol-4-yl)-4-ethyl-5-methyl-1H-pyrazole-3-carboxamide], the IC50 (recombinant human DHODH; [3]) was 10 to 100 nM and the IC50 (MOLM-13 cells; [1]) was 10 to 100 nM.

COc1cccc(-n2ncc3c2COC[C@H]3NC(=O)c2ncn3c2CCCC3)c1Cl [Ex-21, (S)—N-(1-(2-chloro-3-methoxyphenyl)-1,4,5,7-tetrahydropyrano[3,4-c]pyrazol-4-yl)-5,6,7,8-tetrahydroimidazo[1,5-a]pyridine-1-carboxamide] showed an IC50 (recombinant human DHODH; [3]) of under 10 nM and an IC50 (MOLM-13 cells; MOLM-13, 72 h) of under 10 nM.

In the case of CCc1c(C(=O)N[C@@H]2COCc3c2cnn3-c2cccc(OC)c2Cl)ncn1C [Ex-22, (S)—N-(1-(2-chloro-3-methoxyphenyl)-1,4,5,7-tetrahydropyrano[3,4-c]pyrazol-4-yl)-5-ethyl-1-methyl-1H-imidazole-4-carboxamide], the IC50 (recombinant human DHODH; [3]) is reported as under 10 nM and the IC50 (MOLM-13 cells; [1]) is reported as under 10 nM.

COc1cccc(-n2ncc3c2COC[C@H]3NC(=O)c2n[nH]c3c2CCCC3)c1Cl [Ex-24, (S)—N-(1-(2-chloro-3-methoxyphenyl)-1,4,5,7-tetrahydropyrano[3,4-c]pyrazol-4-yl)-4,5,6,7-tetrahydro-1H-indazole-3-carboxamide] was tested, and the IC50 (recombinant human DHODH; [3]) was 10 to 100 nM and the IC50 (MOLM-13 cells; [1]) was under 10 nM.

In the case of COc1cccc(-n2ncc3c2COC[C@H]3NC(=O)c2noc3c2CCCC3)c1Cl [Ex-25, (S)—N-(1-(2-chloro-3-methoxyphenyl)-1,4,5,7-tetrahydropyrano[3,4-c]pyrazol-4-yl)-4,5,6,7-tetrahydrobenzo[d]isoxazole-3-carboxamide], the IC50 (recombinant human DHODH; [3]) is reported as 10 to 100 nM and the IC50 (MOLM-13 cells; [1]) is reported as under 10 nM.

Work on CCc1c(C(=O)N[C@@H]2COCc3c2cnn3-c2cccc(OC)c2Cl)n[nH]c1C [Ex-26, (S)—N-(1-(2-chloro-3-methoxyphenyl)-1,4,5,7-tetrahydropyrano[3,4-c]pyrazol-4-yl)-4-ethyl-5-methyl-1H-pyrazole-3-carboxamide] yielded an IC50 (recombinant human DHODH; [3]) of under 10 nM and an IC50 (MOLM-13 cells; [1]) of under 10 nM.

CCc1c(C(=O)N[C@@H]2COCc3c2cnn3-c2c(F)ccc(OC)c2Cl)ncn1C [Ex-28, (S)—N-(1-(2-chloro-6-fluoro-3-methoxyphenyl)-1,4,5,7-tetrahydropyrano[3,4-c]pyrazol-4-yl)-5-ethyl-1-methyl-1H-imidazole-4-carboxamide] gave an IC50 (recombinant human DHODH; [3]) of under 10 nM and an IC50 (MOLM-13 cells; [1]) of under 10 nM.

For COc1ccc(F)c(-n2ncc3c2COC[C@H]3NC(=O)c2ncc3n2CCCC3)c1Cl [Ex-29, (S)—N-(1-(2-chloro-6-fluoro-3-methoxyphenyl)-1,4,5,7-tetrahydropyrano[3,4-c]pyrazol-4-yl)-5,6,7,8-tetrahydroimidazo[1,5-a]pyridine-3-carboxamide], the IC50 (recombinant human DHODH; [3]) was under 10 nM and the IC50 (MOLM-13 cells; [1]) was under 10 nM.

For COc1ccc(F)c(-n2ncc3c2COC[C@H]3NC(=O)c2n[nH]c3c2CCCC3)c1Cl [Ex-30, (S)—N-(1-(2-chloro-6-fluoro-3-methoxyphenyl)-1,4,5,7-tetrahydropyrano[3,4-c]pyrazol-4-yl)-4,5,6,7-tetrahydro-1H-indazole-3-carboxamide], the IC50 (recombinant human DHODH; [3]) was 10 to 100 nM and the IC50 (MOLM-13 cells; [1]) was under 10 nM.

Work on COc1ccc(F)c(-n2ncc3c2COC[C@H]3NC(=O)c2noc3c2CCCC3)c1Cl [Ex-31, (S)—N-(1-(2-chloro-6-fluoro-3-methoxyphenyl)-1,4,5,7-tetrahydropyrano[3,4-c]pyrazol-4-yl)-4,5,6,7-tetrahydrobenzo[d]isoxazole-3-carboxamide] yielded an IC50 (recombinant human DHODH; read-out: IC50 DHODH inhibition activity) of under 10 nM and an IC50 (MOLM-13 cells; MOLM-13, 72 h) of under 10 nM.

CCc1c(C(=O)N[C@@H]2COCc3c2cnn3-c2c(F)ccc(OC)c2Cl)n[nH]c1C [Ex-32, (S)—N-(1-(2-chloro-6-fluoro-3-methoxyphenyl)-1,4,5,7-tetrahydropyrano[3,4-c]pyrazol-4-yl)-4-ethyl-5-methyl-1H-pyrazole-3-carboxamide] was tested, and the IC50 (recombinant human DHODH; [3]) was 10 to 100 nM and the IC50 (MOLM-13 cells; MOLM-13, 72 h) was under 10 nM.

In the case of COc1ccc(F)c(-n2ncc3c2COC[C@H]3NC(=O)c2cc(C)c(C)cn2)c1Cl [Ex-33, (S)—N-(1-(2-chloro-6-fluoro-3-methoxyphenyl)-1,4,5,7-tetrahydropyrano[3,4-c]pyrazol-4-yl)-4,5-dimethylpicolinamide], the IC50 (recombinant human DHODH; [3]) is reported as 10 to 100 nM and the IC50 (MOLM-13 cells; [1]) is reported as 10 to 100 nM.

Work on CCc1c(C(=O)N[C@@H]2COCc3c2cnn3-c2c(C)cccc2Cl)ncn1C [Ex-35, (S)—N-(1-(2-chloro-6-methylphenyl)-1,4,5,7-tetrahydropyrano[3,4-c]pyrazol-4-yl)-5-ethyl-1-methyl-1H-imidazole-4-carboxamide] yielded an IC50 (recombinant human DHODH; [3]) of under 10 nM and an IC50 (MOLM-13 cells; [1]) of under 10 nM.

For Cc1cnc(C(=O)N[C@@H]2COCc3c2cnn3-c2c(C)cccc2Cl)cc1C [Ex-40, (S)—N-(1-(2-chloro-6-methylphenyl)-1,4,5,7-tetrahydropyrano[3,4-c]pyrazol-4-yl)-4,5-dimethylpicolinamide], the IC50 (MOLM-13 cells; [1]) was 10 to 100 nM.

CS(=O)(=O)c1cccc(-n2ncc3c2COC[C@H]3NC(=O)c2ncn3c2CCCC3)c1 [Ex-49, (S)—N-(1-(3-(methylsulfonyl)phenyl)-1,4,5,7-tetrahydropyrano[3,4-c]pyrazol-4-yl)-5,6,7,8-tetrahydroimidazo[1,5-a]pyridine-1-carboxamide] was tested, and the IC50 (recombinant human DHODH; [2]) was 1000 to 10000 nM.

In the case of CN(C)CCOc1cccc(-n2ncc3c2COC[C@H]3NC(=O)c2ncn3c2CCCC3)c1Cl [Ex-63, (S)—N-(1-(2-chloro-3-(2-(dimethylamino)ethoxy)phenyl)-1,4,5,7-tetrahydropyrano[3,4-c]pyrazol-4-yl)-5,6,7,8-tetrahydroimidazo[1,5-a]pyridine-1-carboxamide], the IC50 (recombinant human DHODH) is reported as 10 to 100 nM.

With CNC(=O)COc1cccc(-n2ncc3c2COC[C@H]3NC(=O)c2ncn3c2CCCC3)c1Cl [Ex-65, (S)—N-(1-(2-chloro-3-(2-(methylamino)-2-oxoethoxy)phenyl)-1,4,5,7-tetrahydropyrano[3,4-c]pyrazol-4-yl)-5,6,7,8-tetrahydroimidazo[1,5-a]pyridine-1-carboxamide] the IC50 (recombinant human DHODH) was 10 to 100 nM.

CC(=O)NCCOc1cccc(-n2ncc3c2COC[C@H]3NC(=O)c2ncn3c2CCCC3)c1Cl [Ex-66, (S)—N-(1-(3-(2-acetamidoethoxy)-2-chlorophenyl)-1,4,5,7-tetrahydropyrano[3,4-c]pyrazol-4-yl)-5,6,7,8-tetrahydroimidazo[1,5-a]pyridine-1-carboxamide] gave an IC50 (recombinant human DHODH) of 10 to 100 nM.

CN(C)C(=O)c1cccc(-n2ncc3c2COC[C@H]3NC(=O)c2ncn3c2CCCC3)c1Cl [Ex-70, (S)—N-(1-(2-chloro-3-(dimethylcarbamoyl)phenyl)-1,4,5,7-tetrahydropyrano[3,4-c]pyrazol-4-yl)-5,6,7,8-tetrahydroimidazo[1,5-a]pyridine-1-carboxamide] showed an IC50 (MOLM-13 cells; MOLM-13, 72 h) of 10 to 100 nM.
